Data: patent publication US20240382483A1, “HETEROCYCLIC EGFR INHIBITORS FOR USE IN THE TREATMENT OF CANCER” (Blueprint Medicines Corporation, priority 2021, published 2024)

Tests used:
[1] = target: T1, EGFR (L858R T790M C797S) (Homo sapiens, UniProt P00533, C797S/L858R/T790M); assay: Biochemical EGFR inhibition assay (Caliper mobility shift), EGFR LRTMCS; settings: LRTMCS (PH) IC50 (nM) @ 1 mM ATP (Num), EGFR LRTMCS mutant
T1 construct: purchased SignalChem E10-122VG
How it was run: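 Kinase reactions proceed at 25° C. to 10%–20% conversion of total peptide, are terminated with 35 mM EDTA, and the phosphopeptide is resolved from substrate by electrophoretic mobility shift. Apparent IC50 values come from plotting percent activity against log compound concentration.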

[2] = target: T2, intracellular phosphorylation of EGFR in NCI-H1975 cell line that harbors the EGFR L858R T790M mutations (Homo sapiens, UniProt P00533, L858R/T790M); assay: NCI-H1975 pEGFR AlphaLISA assay; assay type: cell-based; settings: NCI-H1975 cells (EGFR L858R T790M), p-EGFR (Tyr1068), 4-5 hours incubation; read-out: Ext pEGFR H1975 GMean IC50 (nM) Protocol: @Pharmaron AlphaLISA (Num)
T2 construct: NCI-H1975 cell line that harbors the EGFR L858R T790M mutations (ATCC, CRL-5908); host or cells: NCI-H1975
Experimental: On the next day, the test compounds and DMSO control were added into H1975 cell plate followed by incubation at 37C/5% CO2 for 4-5 hours. […] Then 5 μL of a donor bead mix was added to each well followed by overnight incubation at room temperature in dark. On the next day, the plate was read at a compatible plate reader to obtain pEGFR signal. Percent of pEGFR inhibition was plotted against log concentration of compounds to generate IC50 values.

T1 sequence (P00533 25-1210 T790M/C797S/L858R): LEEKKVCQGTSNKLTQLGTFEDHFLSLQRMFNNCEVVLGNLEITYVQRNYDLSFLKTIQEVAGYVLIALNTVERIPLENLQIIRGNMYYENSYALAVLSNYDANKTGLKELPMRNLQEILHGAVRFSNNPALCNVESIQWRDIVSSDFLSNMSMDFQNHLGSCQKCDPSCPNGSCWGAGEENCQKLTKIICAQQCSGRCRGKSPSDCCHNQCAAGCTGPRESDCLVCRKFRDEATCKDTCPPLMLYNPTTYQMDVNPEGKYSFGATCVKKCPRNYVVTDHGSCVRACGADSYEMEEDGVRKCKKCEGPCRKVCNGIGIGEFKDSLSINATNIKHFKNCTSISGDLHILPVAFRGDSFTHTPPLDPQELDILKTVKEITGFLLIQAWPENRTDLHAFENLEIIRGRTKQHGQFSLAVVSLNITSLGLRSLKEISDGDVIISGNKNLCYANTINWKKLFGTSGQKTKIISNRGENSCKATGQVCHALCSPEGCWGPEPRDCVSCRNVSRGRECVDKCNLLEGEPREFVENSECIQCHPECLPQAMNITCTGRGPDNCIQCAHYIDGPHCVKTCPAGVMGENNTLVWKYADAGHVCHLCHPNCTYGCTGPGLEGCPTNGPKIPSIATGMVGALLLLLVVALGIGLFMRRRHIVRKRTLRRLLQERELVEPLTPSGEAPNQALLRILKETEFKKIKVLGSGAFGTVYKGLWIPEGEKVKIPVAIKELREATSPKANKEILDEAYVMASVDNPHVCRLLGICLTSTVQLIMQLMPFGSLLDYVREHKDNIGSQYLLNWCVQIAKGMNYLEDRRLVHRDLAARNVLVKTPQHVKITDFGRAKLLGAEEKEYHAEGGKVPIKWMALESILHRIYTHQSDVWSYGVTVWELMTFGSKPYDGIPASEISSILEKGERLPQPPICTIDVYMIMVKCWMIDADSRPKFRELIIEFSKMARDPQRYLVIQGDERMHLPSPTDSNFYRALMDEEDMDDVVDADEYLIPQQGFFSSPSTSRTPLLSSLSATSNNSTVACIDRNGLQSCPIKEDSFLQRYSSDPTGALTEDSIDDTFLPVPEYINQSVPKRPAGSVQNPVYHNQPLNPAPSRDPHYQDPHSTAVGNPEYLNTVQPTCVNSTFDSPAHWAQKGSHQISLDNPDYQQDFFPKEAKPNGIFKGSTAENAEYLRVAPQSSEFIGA
T2 sequence (P00533 25-1210 T790M/L858R): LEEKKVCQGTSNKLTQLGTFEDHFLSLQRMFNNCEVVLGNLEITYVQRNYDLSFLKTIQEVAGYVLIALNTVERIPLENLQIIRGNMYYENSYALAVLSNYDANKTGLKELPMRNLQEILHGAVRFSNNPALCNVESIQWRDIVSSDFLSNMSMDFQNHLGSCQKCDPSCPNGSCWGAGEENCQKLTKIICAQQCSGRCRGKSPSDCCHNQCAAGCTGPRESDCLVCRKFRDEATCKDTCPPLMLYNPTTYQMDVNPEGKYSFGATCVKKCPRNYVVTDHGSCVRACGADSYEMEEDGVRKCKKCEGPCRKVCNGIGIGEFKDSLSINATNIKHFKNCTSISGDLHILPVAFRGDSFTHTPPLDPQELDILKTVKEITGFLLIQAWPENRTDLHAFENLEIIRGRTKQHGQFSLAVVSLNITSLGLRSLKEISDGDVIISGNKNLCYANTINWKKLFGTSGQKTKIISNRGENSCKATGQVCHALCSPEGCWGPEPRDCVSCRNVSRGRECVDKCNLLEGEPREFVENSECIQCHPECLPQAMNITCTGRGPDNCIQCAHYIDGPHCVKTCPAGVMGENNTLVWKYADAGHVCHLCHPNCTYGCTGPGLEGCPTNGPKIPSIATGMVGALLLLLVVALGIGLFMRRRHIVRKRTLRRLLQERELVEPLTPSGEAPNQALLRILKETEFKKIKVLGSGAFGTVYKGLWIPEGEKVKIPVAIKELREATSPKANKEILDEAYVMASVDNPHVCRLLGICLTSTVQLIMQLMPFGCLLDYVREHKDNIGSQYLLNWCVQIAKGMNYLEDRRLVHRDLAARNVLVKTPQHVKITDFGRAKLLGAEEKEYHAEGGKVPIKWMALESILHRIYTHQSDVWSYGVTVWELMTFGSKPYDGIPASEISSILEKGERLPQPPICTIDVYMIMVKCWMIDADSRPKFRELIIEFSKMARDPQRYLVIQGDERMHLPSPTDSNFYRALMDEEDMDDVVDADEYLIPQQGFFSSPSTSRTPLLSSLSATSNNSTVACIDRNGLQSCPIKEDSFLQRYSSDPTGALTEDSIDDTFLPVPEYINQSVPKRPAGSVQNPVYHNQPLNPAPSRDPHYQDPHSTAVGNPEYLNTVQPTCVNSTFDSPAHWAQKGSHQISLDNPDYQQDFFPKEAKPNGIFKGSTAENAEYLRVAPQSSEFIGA

SMILES | IC50 [1] | IC50 [2]
CC(C)c1ccc(N2CC(n3ccnn3)C2)c2cnc(Nc3ccnc(N4CC[C@@H](O)[C@@](C)(F)C4)n3)cc12 [Example 38, (3S,4R)-1-(4-((8-(3-(1H-1,2,3-triazol-1-yl)azetidin-1-yl)-5-isopropylisoquinolin-3-yl)amino)pyrimidin-2-yl)-3-fluoro-3-methylpiperidin-4-ol] | < 15 nM | < 10 nM
CC(C)c1cnc(N2CCC23CN(C)C3)c2cnc(Nc3ccnc(N4CC[C@@]5(CCO5)C(F)(F)C4)n3)cc12 (single isomer, unassigned) [Example 194, (R)—N-(2-(5,5-difluoro-1-oxa-7-azaspiro[3.5]nonan-7-yl)pyrimidin-4-yl)-5-isopropyl-8-(6-methyl-1,6-diazaspiro[3.3]heptan-1-yl)-2,7-naphthyridin-3-amine or (S)—N-(2-(5,5-difluoro-1-oxa-7-azaspiro[3.5]nonan-7-yl)pyrimidin-4-yl)-5-isopropyl-8-(6-methyl-1,6-diazaspiro[3.3]heptan-1-yl)-2,7-naphthyridin-3-amine] | < 15 nM | > 50 nM
CC(C)c1cnc(N2CC3(CCS3(=O)=O)C2)c2cnc(Nc3ccnc(N4CC[C@@](C)(O)[C@@H](F)C4)n3)cc12 (single isomer, unassigned) [Example 175, 6-(6-((2-((3S,4R)-3-fluoro-4-hydroxy-4-methylpiperidin-1-yl)pyrimidin-4-yl)amino)-4-isopropyl-2,7-naphthyridin-1-yl)-1-thia-6-azaspiro[3.3]heptane 1,1-dioxide or 6-(6-((2-((3R,4S)-3-fluoro-4-hydroxy-4-methylpiperidin-1-yl)pyrimidin-4-yl)amino)-4-isopropyl-2,7-naphthyridin-1-yl)-1-thia-6-azaspiro[3.3]heptane 1,1-dioxide] | < 15 nM | > 50 nM
CC(C)c1cnc(N2CC[C@H]2C(F)F)c2cnc(Nc3ccnc(N4CC[C@@H](O)[C@@](C)(F)C4)n3)cc12 (single isomer, unassigned) [Example 204, (3S,4R)-1-(4-((8-((S)-2-(difluoromethyl)azetidin-1-yl)-5-isopropyl-2,7-naphthyridin-3-yl)amino)pyrimidin-2-yl)-3-fluoro-3-methylpiperidin-4-ol or (3S,4R)-1-(4-((8-((R)-2-(difluoromethyl)azetidin-1-yl)-5-isopropyl-2,7-naphthyridin-3-yl)amino)pyrimidin-2-yl)-3-fluoro-3-methylpiperidin-4-ol] | < 15 nM | 10 to 20 nM
CC(C)c1cnc(N2CC(CO)C2)c2cnc(Nc3ccnc(N4CC[C@@H](O)[C@@](C)(F)C4)n3)cc12 [Example 61, (3S,4R)-3-fluoro-1-(4-((8-(3-(hydroxymethyl)azetidin-1-yl)-5-isopropyl-2,7-naphthyridin-3-yl)amino)pyrimidin-2-yl)-3-methylpiperidin-4-ol] | < 15 nM | 30 to 50 nM
CC(C)c1cnc(-c2cnn(C(F)F)c2)c2cnc(Nc3ccnc(N4CC[C@@H](O)[C@@](C)(F)C4)n3)cc12 [Example 16, (3S,4R)-1-(4-((8-(1-(difluoromethyl)-1H-pyrazol-4-yl)-5-isopropyl-2,7-naphthyridin-3-yl)amino)pyrimidin-2-yl)-3-fluoro-3-methylpiperidin-4-ol] | 15 to 20 nM | > 50 nM
C[C@H]1CCN1c1ncc(CC2(C)COC2)c2cc(Nc3ccnc(N4CC[C@@H](O)[C@@](C)(F)C4)n3)ncc12 (single isomer, unassigned) [Example 156, (3S,4R)-3-fluoro-3-methyl-1-(4-((8-((S)-2-methylazetidin-1-yl)-5-((3-methyloxetan-3-yl)methyl)-2,7-naphthyridin-3-yl)amino)pyrimidin-2-yl)piperidin-4-ol or (3S,4R)-3-fluoro-3-methyl-1-(4-((8-((R)-2-methylazetidin-1-yl)-5-((3-methyloxetan-3-yl)methyl)-2,7-naphthyridin-3-yl)amino)pyrimidin-2-yl)piperidin-4-ol] | 20 to 30 nM | > 50 nM
C[C@@H]1CCN1c1ncc([C@@H](C)OCC2COC2)c2cc(Nc3ccnc(N4CC[C@@H](O)[C@@](C)(F)C4)n3)ncc12 (single isomer, unassigned) [Example 183, (3S,4R)-3-fluoro-3-methyl-1-(4-((8-((R)-2-methylazetidin-1-yl)-5-((R)-1-(oxetan-3-ylmethoxy)ethyl)-2,7-naphthyridin-3-yl)amino)pyrimidin-2-yl)piperidin-4-ol or (3S,4R)-3-fluoro-3-methyl-1-(4-((8-((R)-2-methylazetidin-1-yl)-5-((S)-1-(oxetan-3-ylmethoxy)ethyl)-2,7-naphthyridin-3-yl)amino)pyrimidin-2-yl)piperidin-4-ol] | 30 to 100 nM | > 50 nM
CC(C)c1cnc(N2C[C@@H](F)[C@H](F)C2)c2cnc(Nc3ccnc(N4CC[C@@H](O)[C@@](C)(F)C4)n3)cc12 (single isomer, unassigned) [Example 60, (3S,4R)-1-(4-((8-((3R,4R)-3,4-difluoropyrrolidin-1-yl)-5-isopropyl-2,7-naphthyridin-3-yl)amino)pyrimidin-2-yl)-3-fluoro-3-methylpiperidin-4-ol or (3S,4R)-1-(4-((8-((3S,4S)-3,4-difluoropyrrolidin-1-yl)-5-isopropyl-2,7-naphthyridin-3-yl)amino)pyrimidin-2-yl)-3-fluoro-3-methylpiperidin-4-ol] | < 15 nM | 10 to 20 nM
CO[C@H]1CCN(c2nccc(Nc3cc4c(C(C)C)ccc(N5C[C@H](c6nncn6C)[C@H]5C)c4cn3)n2)C[C@@H]1O (single isomer, unassigned) [Example 218] | < 15 nM | 30 to 50 nM
CC(C)c1cnc(N2CC[C@H]2CO)c2cnc(Nc3ccnc(N4CC[C@@H](O)[C@@](C)(F)C4)n3)cc12 [Example 52, (3S,4R)-3-fluoro-1-(4-((8-((S)-2-(hydroxymethyl)azetidin-1-yl)-5-isopropyl-2,7-naphthyridin-3-yl)amino)pyrimidin-2-yl)-3-methylpiperidin-4-ol] | < 15 nM | < 10 nM
CO[C@H]1CCN(c2cc(Nc3cc4c(C(C)C)ccc(N5CC(n6ccnn6)C5)c4cn3)ccn2)C[C@@H]1O (single isomer, unassigned) [Example 127, (3S,4S)-1-(4-((8-(3-(1H-1,2,3-triazol-1-yl)azetidin-1-yl)-5-isopropylisoquinolin-3-yl)amino)pyridin-2-yl)-4-methoxypiperidin-3-ol or (3R,4R)-1-(4-((8-(3-(1H-1,2,3-triazol-1-yl)azetidin-1-yl)-5-isopropylisoquinolin-3-yl)amino)pyridin-2-yl)-4-methoxypiperidin-3-ol] | 15 to 20 nM | 10 to 20 nM
CO[C@@H]1CCN(c2nccc(Nc3cc4c(C(C)C)cnc(N5C[C@H](OCCN)[C@H]5C)c4cn3)n2)C[C@@H]1F [Example 163, 8-((2R,3S)-3-(2-aminoethoxy)-2-methylazetidin-1-yl)-N-(2-((3S,4R)-3-fluoro-4-methoxypiperidin-1-yl)pyrimidin-4-yl)-5-isopropyl-2,7-naphthyridin-3-amine] | < 15 nM | 20 to 30 nM
CC(C)c1cnc(N2CC(CCO)C2)c2cnc(Nc3ccnc(N4CC[C@@H](O)[C@@](C)(F)C4)n3)cc12 [Example 77, (3S,4R)-3-fluoro-1-(4-((8-(3-(2-hydroxyethyl)azetidin-1-yl)-5-isopropyl-2,7-naphthyridin-3-yl)amino)pyrimidin-2-yl)-3-methylpiperidin-4-ol] | 15 to 20 nM | 20 to 30 nM
